# Results published in patent EP0799174B1, “BIOCIDAL ALCOHOLS, THEIR PRODUCTION AND THEIR USE” (SCHÜLKE & MAYR GMBH, priority 1994, dated 1996).
# Experiments:
# Type in all cases: cell-based
# P. vulgaris = system: P. vulgaris
# From the text: (§1) Standard formulation: • aromatic alcohol 1 part • dimethylformamide 6 parts [table] The diameters of the inhibition zones are given in mm.
# [1] = system: Staphylococcus aureus ATCC 6538; experiment: Plate diffusion test (agar diffusion test); conditions: aromatic alcohol 1 part, dimethylformamide 6 parts
# From the text: as §1
# [2] = system: Escherichia coli ATCC 11229; experiment: Plate diffusion test (agar diffusion test); conditions: aromatic alcohol 1 part, dimethylformamide 6 parts
# From the text: as §1
# [3] = system: Pseudomonas aeruginosa ATCC 15442; experiment: Plate diffusion test (agar diffusion test); conditions: aromatic alcohol 1 part, dimethylformamide 6 parts
# From the text: as §1
# [4] = system: Candida albicans ATCC 10231; experiment: Plate diffusion test (agar diffusion test); conditions: aromatic alcohol 1 part, dimethylformamide 6 parts
# From the text: as §1
# [5] = system: Staphylococcus aureus ATCC 6538; experiment: MIC values, water-insoluble (covered area of plates, solutions in acetone); conditions: solution in acetone, 100% means no inhibiting action
# From the text: (§2) [table] The size of the covered areas of the plates is given in %; 100% means no inhibiting action.
# [6] = system: Aspergillus niger ATCC 6275; experiment: as above; conditions: solution in acetone, 100% means no inhibiting action
# From the text: as §2
# [7] = system: Escherichia coli ATCC 11229; experiment: as above; conditions: solution in acetone, 100% means no inhibiting action
# From the text: as §2
# [8] = system: Candida albicans ATCC 10231; experiment: as above; conditions: solution in acetone, 100% means no inhibiting action
# From the text: as §2
Compound,"diameters of the inhibition zones, P. vulgaris (P. vulgaris) [mm]","diameters of the inhibition zones, S. aureus [1] [mm]","diameters of the inhibition zones, E. coli [2] [mm]","diameters of the inhibition zones, P. aeruginosa [3] [mm]","diameters of the inhibition zones, C. albicans [4] [mm]","size of the covered areas of the plates, S. aureus ([5]; concentration 0.25 % by wt.) [%]","size of the covered areas of the plates, S. aureus ([5]; concentration 0.50 % by wt.) [%]","size of the covered areas of the plates, S. aureus ([5]; concentration 1.00 % by wt.) [%]","size of the covered areas of the plates, A. niger ([6]; concentration 0.25 % by wt.) [%]","size of the covered areas of the plates, A. niger ([6]; concentration 0.50 % by wt.) [%]","size of the covered areas of the plates, A. niger ([6]; concentration 1.00 % by wt.) [%]","size of the covered areas of the plates, E. coli ([7]; concentration 0.25 % by wt.) [%]","size of the covered areas of the plates, E. coli ([7]; concentration 0.50 % by wt.) [%]","size of the covered areas of the plates, E. coli ([7]; concentration 1.00 % by wt.) [%]","size of the covered areas of the plates, C. albicans ([8]; concentration 0.25 % by wt.) [%]","size of the covered areas of the plates, C. albicans ([8]; concentration 0.50 % by wt.) [%]","size of the covered areas of the plates, C. albicans ([8]; concentration 1.00 % by wt.) [%]",other results
CCC(CO)Cc1ccccc1Cl (stereo not shown) [Alcohol 9],0,15,11,0,15,100,100,80,100,90,20,100,100,100,100,100,80,–
CCC(CO)Cc1ccc(Cl)cc1 (stereo not shown) [Alcohol 10],0,14,11,0,15,100,100,10,90,70,10,100,100,100,100,90,10,"size of the covered areas of the plates, S. aureus ([5]; concentration 0.125 % by wt.): 100%; size of the covered areas of the plates, A. niger ([6]; concentration 0.125 % by wt.): 100%; size of the covered areas of the plates, E. coli ([7]; concentration 0.125 % by wt.): 100%; size of the covered areas of the plates, C. albicans ([8]; concentration 0.125 % by wt.): 100%"
CCC(CO)Cc1ccc(Cl)c(Cl)c1 (stereo not shown) [Alcohol 11],0,17,0,0,13,100,90,5,100,70,10,100,100,90,100,80,10,–
CCC(CO)Cc1ccccc1C (stereo not shown) [Alcohol 12],13,20,17,15,22,–,100,90,–,100,80,–,100,100,–,100,80,–
CCC(CO)Cc1ccc(C)cc1 (stereo not shown) [Alcohol 13],14,16,13,13,19,100,100,90,100,90,20,100,100,95,100,100,90,–
CCC(CO)Cc1ccc(C)c(C)c1 (stereo not shown) [Alcohol 14],0,18,15,18,22,100,90,30,90,80,10,100,100,100,100,100,20,"size of the covered areas of the plates, S. aureus ([5]; concentration 0.125 % by wt.): 100%; size of the covered areas of the plates, A. niger ([6]; concentration 0.125 % by wt.): 100%; size of the covered areas of the plates, E. coli ([7]; concentration 0.125 % by wt.): 100%; size of the covered areas of the plates, C. albicans ([8]; concentration 0.125 % by wt.): 100%"
CCC(CO)Cc1cccc(OC)c1 (stereo not shown) [Alcohol 15],18,18,18,15,23,–,100,100,–,100,90,–,100,100,–,100,100,–
CCC(CO)Cc1ccc(OC)c(OC)c1 (stereo not shown) [Alcohol 16],17,18,17,18,28,–,–,–,–,–,–,–,–,–,–,–,–,–
C=CCC(CO)Cc1ccccc1 (stereo not shown) [Alcohol 17],13,16,13,12,17,–,100,100,–,100,80,–,100,90,–,100,100,–
CCCCCC(CO)Cc1ccccc1 (stereo not shown) [Alcohol 18],0,11,0,0,11,100,20,0,100,40,0,100,100,100,100,80,70,–
